The values below are quoted from earlier work in patent US10858659B2, “Biosynthetic gene cluster of carrimycin” (SHENYANG FUYANG PHARMACEUTICAL TECHNOLOGY CO., LTD., priority 2015, dated 2020).

The conditions of data set [1]: in vivo.

For Carrimycin, the in-vivo retention time entry is recorded as “long”. Also, where the note is “in vivo”, the absolute bioavailability result was “high”, the elimination half-life entry is “long”, the “tissue concentration compared with blood plasma concentration” value is reported as “higher than blood plasma concentration” and the tissue distribution entry is given as “wide”. Further, under “in vivo”, the tissue penetrability entry is reported as “high”. Moreover, the “oral administration absorption speed” value (in vivo, po) is on record as “high”. Also, in data set [1], the adverse reaction rate result is on record as “low”, the injury to livers entry is on record as “little” and the safety entry is on record as “good”.
